Measured values taken from patent US20230339949A1, “HETEROCYCLIC SUBSTITUTED FUSED y-CARBOLINE DERIVATIVE, PREPARATION METHOD THEREFOR, INTERMEDIATE THEREOF AND USE THEREOF” (SHUJING BIOPHARMA CO., LTD, priority 2020, published 2023).
Where two headings read alike, the source gives them in different places.

Columns and labels:
Format in all cases: cell-based
5-HT2A receptor = target: T1, 5-HT2A receptor (Homo sapiens, UniProt P28223); assay: Functional detection experiment of 5-HT2A receptor (cultured cells), calcium influx assay
T1 construct: expressed in transfected cells
Text: The antagonistic effect of the compound of the present disclosure on the 5-HT2A receptor was detected by a calcium influx assay at the cellular level.
• (1) Test compounds: compounds of the embodiments of the present disclosure, self-made. • (2) Control compound: serotonin hydrochloride 5-hydroxytryptamine (Sigma, H9523), Ketanserin (Targetmol, T1066). • (3) Stable cell line:
• (1) Preparation of test compounds: the compounds of the embodiments of the present disclosure were respectively dissolved in DMSO to prepare 10 mM mother liquor, and the mother liquor was stored in the nitrogen cabinet for later use. • (2) Preparation of control compound: the control compound was dissolved in DMSO to prepare 10 mM mother liquor, and the mother liquor was repackaged and stored in the refrigerator at -80° C. for later use. • (3) Preparation of 250 mM probenecid solution: 1 mL experimental buffer was added into a tube containing 77 mg powder, and the powder was dissolved by vortex oscillation. • (4) Preparation of 2× fluorescent probe solution: a bottle of fluorescent probe dry powder was taken out to balance to room temperature, and 10 mL of experimental buffer solution and 200 μL of 250 mM probenecid solution were added thereto, and the mixture was scrolled and let stand for 5 minutes to ensure complete dissolution. • (5) Experimental buffer HBSS: HBSS and HEPES were mixed evenly in a ratio of 50:1, stored in a refrigerator at 4° C., and heated at 37° C. when used.
• (1) Cells were taken out from the liquid nitrogen tank and melted in a water bath at 37° C. The surface of the cryopreservation tube was wiped with 75% alcohol and put in the biosafety cabinet. • (2) The cell suspension was transferred to a 15 mL centrifuge tube with 4 mL preheated plating medium, and the tube was centrifuged at 1000 rpm for 5 minutes. • (3) The supernatant was discarded, and 10 mL of plating medium was added and blown gently, and the mixture was transferred to a culture dish for growth. After the cells had adhered to the wall for 24 hours, they were replaced with growth medium for continuous culture.
• (1) The logarithmic growth cells was taken and the cells grew to about 85%-90%. The cells were performed the following operations: cell cleaning, digestion, termination, then transferred to a 15 mL centrifuge tube, and the tube was centrifuged at room temperature at 1000 rpm for 5 minutes. • (2) The supernatant was discarded, and a certain plating medium was added and blown gently. 20 μL of cell suspension was taken out and counted. • (3) Cells were diluted to 1×10^6 cells/mL and 20 μL of cell suspension was added to each well of the cell plate (Greiner-781946), so that the density of each well is 2×10^4 cells/well. • (4) The cell plate was incubated in an incubator with 5% CO2 at 37° C. for 16-24 hours. […]

D2L receptor = target: T2, D2L receptor (Homo sapiens, UniProt P14416); assay: Functional activity test on D2L receptor, cAMP detection (Gi antagonist test); conditions: cryopreserved CHO-K1/D2L/Gα15 cells, forskolin + dopamine EC90
T2 construct: expressed in transfected cells
Text: (§1) The antagonistic effects of the compounds of the present disclosure on D2L and D2S receptors were detected by cyclic adenosine monophosphate (cAMP) detection method at cell-level.
(§2) • (1) Test compound: compounds of the embodiment of the present disclosure, self-made. • (2) Control compound: dopamine hydrochloride (Sigma, H8502), (+)-Butaclamol hydrochloride (Sigma, D033). • (3) Stable cell line:
(§3) • (1) Preparation of test compounds: the compounds of the embodiments of the present disclosure were respectively dissolved in DMSO to prepare 10 mM mother liquor, and the mother liquor was stored in the nitrogen cabinet for later use. • (2) Preparation of control compound: the control compound was dissolved in DMSO to prepare 10 mM mother liquor, and the mother liquor was repackaged and stored in the refrigerator at −80° C. for later use. • (3) IBMX was dissolved in DMSO to prepare 0.5 M stock solution and the stock solution was cryopreserved at −80° C. • (4) Forskolin was dissolved in DMSO to prepare 1 mM stock solution and the stock solution was cryopreserved at −80° C. for later use. • (5) Experimental buffer: 5× stimulation buffer was diluted to 1× with ddH2O and IBMX with a final concentration of 0.5 mM was added thereto, and the solution was mixed well for later use.
(§4) • (1) Preparation of compounds: the test compounds and positive control compound (+)-Butaclamol hydrochloride were diluted gradient using Bravo in the compound plate (Greiner-781280), and the initial concentration of working solution was 20 μM, and the working solution was diluted at 4-fold for 10 concentrations and centrifuged at 1000 rpm for 1 minute for later use. • (2) Cryopreserved D2L cells: cells was taken out from the liquid nitrogen tank and thaw in a water bath at 37° C., and the cell suspension was transferred to a centrifuge tube containing HBSS buffer, and centrifuged at 750 rpm for 5 minutes.
(§5) Cultured D2S cells: after absorbing the culture medium, the cells were washed with 3 mL PBS, sucked out, digested with 0.05% Trypsin for 3 min, terminated with equal volume of culture medium, transferred to centrifuge tube, and centrifuged at 750 rpm for 5 minutes. After absorbing the liquid, the centrifuge tube was added with a buffer solution containing HBSS and re-suspend, and centrifuged at 750 rpm for 5 minutes. • (3) The supernatant was discarded, and the precipitate was re-suspended with proper amount of experimental buffer, and 20 μL was taken for cell counting. • (4) Appropriate amount of cell suspension was removed, and the cell suspension was diluted to 2×10^5 cells/mL with experimental buffer, and the cell plate (PerkinElmer-6008280) was added with 5 μL/well cell suspension, and centrifuged at 1000 rpm for 1 minute. • (5) 5 μL/well was transferred to the cell plate with Bravo, and the cell plate was centrifuged at 1000 rpm for 1 minute, then the cell plate was closed and incubated at room temperature for 15 minutes. • (6) Forskolin was transferred to the cell plate with Tecan-D300e, and Dopamine hydrochloride with a final concentration of EC90 was transferred to the cell plate. • (7) The cell plate was centrifuged at 1000 rpm for 1 minute, then sealed and incubated at room temperature for 45 minutes. • (8) Standard curve: cAMP with the stock solution concentration of 2848 nM was diluted 4-fold continuously at 8 points according to the initial maximum concentration of 712 nM, and 10 μL/well was taken out to add to the cell plate. • (9) 10 μL/well of detection solution containing cAMP-d2 and Anti-cAMP-Cryptate (diluted with pyrolysis buffer at 1:20) was added to the cell plate, and the cell plate was centrifuged at 1000 rpm for 1 minute, and incubated at room temperature without light for 1 hour. • (10) Detection: the cell plate was centrifuged at 1000 rpm for 1 minute, and the plate was read with Envision (excitation light 340 nm, emission light 620 nm and 665 nm). […]

D2S receptor = target: T3, D2S receptor (Homo sapiens, UniProt P14416); assay: Functional activity test on D2S receptor, cAMP detection (Gi antagonist test); conditions: cultured HEK293/D2S cells, forskolin + dopamine EC90
T3 construct: expressed in transfected cells
Text: as §1, §2, §3, §4, §5

[1] = cultured CHO-K1/5-HT2A cells, calcium influx (FLIPR), antagonist mode vs agonist EC80, read-out: 5-HT2A IC50

T1 sequence (P28223 whole entry): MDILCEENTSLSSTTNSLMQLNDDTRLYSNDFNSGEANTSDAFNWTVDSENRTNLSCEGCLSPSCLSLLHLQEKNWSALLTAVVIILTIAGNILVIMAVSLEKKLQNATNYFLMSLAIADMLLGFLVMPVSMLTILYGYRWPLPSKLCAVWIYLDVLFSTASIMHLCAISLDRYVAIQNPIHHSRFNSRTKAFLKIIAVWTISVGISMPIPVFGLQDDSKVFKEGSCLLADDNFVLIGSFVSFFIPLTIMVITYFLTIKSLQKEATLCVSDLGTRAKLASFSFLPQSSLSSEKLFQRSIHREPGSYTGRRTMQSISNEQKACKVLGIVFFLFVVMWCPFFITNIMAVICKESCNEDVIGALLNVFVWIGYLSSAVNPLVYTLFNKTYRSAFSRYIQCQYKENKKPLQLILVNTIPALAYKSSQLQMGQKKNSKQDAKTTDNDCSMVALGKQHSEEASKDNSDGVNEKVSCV
T3 sequence (P14416 1-414 isoform P14416-2): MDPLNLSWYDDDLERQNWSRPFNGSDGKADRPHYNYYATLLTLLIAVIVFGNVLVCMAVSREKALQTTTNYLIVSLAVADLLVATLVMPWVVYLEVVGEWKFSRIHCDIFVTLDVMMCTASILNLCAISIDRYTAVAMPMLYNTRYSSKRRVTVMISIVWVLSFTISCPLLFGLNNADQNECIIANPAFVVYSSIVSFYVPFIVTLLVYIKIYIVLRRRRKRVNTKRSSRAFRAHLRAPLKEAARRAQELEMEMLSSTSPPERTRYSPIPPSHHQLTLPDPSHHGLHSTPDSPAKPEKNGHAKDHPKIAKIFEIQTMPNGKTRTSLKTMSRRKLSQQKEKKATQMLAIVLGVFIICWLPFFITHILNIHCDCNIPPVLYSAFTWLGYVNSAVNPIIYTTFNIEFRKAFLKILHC
T2 sequence (P14416 whole entry): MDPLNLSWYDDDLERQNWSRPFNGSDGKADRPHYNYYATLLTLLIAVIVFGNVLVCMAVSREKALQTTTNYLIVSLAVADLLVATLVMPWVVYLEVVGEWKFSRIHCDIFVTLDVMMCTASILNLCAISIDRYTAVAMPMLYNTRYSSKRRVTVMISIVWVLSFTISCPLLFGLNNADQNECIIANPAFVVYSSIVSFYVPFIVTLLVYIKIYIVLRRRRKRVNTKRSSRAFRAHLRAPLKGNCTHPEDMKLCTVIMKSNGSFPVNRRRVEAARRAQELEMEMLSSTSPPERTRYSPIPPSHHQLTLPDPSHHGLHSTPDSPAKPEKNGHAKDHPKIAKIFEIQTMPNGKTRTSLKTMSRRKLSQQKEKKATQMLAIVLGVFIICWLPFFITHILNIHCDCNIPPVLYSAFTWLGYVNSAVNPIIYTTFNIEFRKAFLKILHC

Structure (SMILES)	IC50 (5-HT2A receptor; [1])	IC50 (D2L receptor)	IC50 (D2S receptor)	IC50 (5-HT2A receptor)
CN1C(=O)CN2c3c1cccc3[C@]1(C)CN(CCCC(=O)c3ccc(F)cc3)CC[C@H]21 [Embodiment 1-A, (6bR,10aS)-8-(4-(4-fluorophenyl)-4-oxobutyl)-3,6b-dimethyl-6b,7,8,9,10,10a-hexahydro-1H-pyrido[3′,4′:4,5]pyrrolo [1,2,3-de]quinoxalin-2(3H)-one]	0.78 nM	30.9 nM	261 nM	–
CN1C(=O)CN2c3c1cccc3C1(C)CN(CCCC(=O)c3ccc(F)cc3)CCC21 (stereo not drawn) [Embodiment 1, 8-(4-(4-fluorophenyl)-4-oxobutyl)-3,6b-dimethyl-6b,7,8,9,10,10a-hexahydro-1H-pyrido[3′,4′:4,5]pyrrolo[1,2,3-de]quinoxalin-2(3H)-one]	–	20.3 nM	95.4 nM	3.72 nM
CN1CCN2c3c(cccc31)[C@@H]1CN(CCCC(=O)c3ccc(F)cc3)CC[C@@H]12 [ITI-007, Lumateperone, reference compound]	3.35 nM	131 nM	344 nM	–
